{"source": "patent US10478501B2", "about": "“Method of treating disorders using a pharmaceutical composition of oligopeptides” (Merck Patent GmbH, priority 2011, dated 2019)", "key": {"[1]": {"test_system": "H1299", "test": "Cellular radiosensitivity by clonogenic cell survival assay, H1299", "assay_type": "cell-based, human", "conditions": "combined with γ-radiation, given 1 h before and continued 23 h after irradiation", "method": "(§1) Methods: Three non-small cell lung carcinoma lines (NSCLCs) (H460, A549 and H1299) and three head and neck squamous cell carcinoma lines (HNSCCs) (FaDu, SCC-15 and SCC-25) cell lines were used for in vitro experiments. Of these, H460 and FaDu were used for in vivo testing when grown as xenografts in nude mice. The effects of cilengitide (1-50 μg/ml, 24 h) on in vitro cell viability was determined by MTS assay and on cellular radiosensitivity by clonogenic cell survival assay after exposing the cells to graded single doses of γ-radiation with or without cilengitide (given 1 h before and continued for 23 h after irradiation). In vivo effect of cilengitide on radioresponse of xenografts was assessed by tumor growth delay. When tumor xenografts reached 7 mm in diameter cilengitide treatment (30 or 60 mg/d/5 or 10 days) was initiated followed by a single dose of 15 Gy local radiation (using ^137Cs γ-ray source), when the tumors reached 8 mm."}, "[2]": {"test_system": "BT474 human breast cancer cells", "test": "Her2+ breast cancer model BT474, Cilengitide in combination with Herceptin", "assay_type": "in vivo, Balbc nu/nu mice", "conditions": "300 mg/kg Cilengitide s.c. daily", "description": "BT474 human breast cancer cells were subcutaneously injected into Balbc nu/nu mice. The mice were randomized into different treatment groups when the tumors reached a mean tumor volume of approximately 125 mm^3."}, "[3]": {"test_system": "U251 MG", "test": "U251 MG xenograft orthotopic brain model in nude rat, cilengitide with radiation", "assay_type": "in vivo", "conditions": "for Tumor volume (mm^3) median (histologic, Alu ISH): median (range)", "method": "Synergistic Effect of the Combination of Cilengitide with Radiation in U251 MG Xenograft Orthotopic Brain Model in Nude Rat Caspase 3 Staining (Shown in FIG. 17) [table] RT is radiotherapy. Single dose. EMD is cilengitide. Single dose."}, "[4]": {"test_system": "A549", "test": "Cellular radiosensitivity by clonogenic cell survival assay, A549", "assay_type": "cell-based, human", "conditions": "combined with γ-radiation, given 1 h before and continued 23 h after irradiation", "method": "as §1"}, "[5]": {"test_system": "FaDu (HNSCC) tumor xenografts", "test": "Tumor growth delay of FaDu xenografts with radiation", "assay_type": "in vivo, nude mice", "method": "as §1"}, "[6]": {"conditions": "EMD (cilengitide) single dose + RT single dose, Control 41, RT 113, listed as EMD + RT"}}, "data": [{"smiles": "CC(C)[C@H]1C(=O)N[C@@H](CCCN=C(N)N)C(=O)NCC(=O)N[C@@H](CC(=O)O)C(=O)N[C@H](Cc2ccccc2)C(=O)N1C", "note": "[Cilengitide, cyclo-(Arg-Gly-Asp-DPhe-NMeVal)]", "values": [{"measurement": "radiosensitivity enhancement factor", "setting": "[1]", "result": 1.3}, {"measurement": "tumor growth of Her2+ BT474 tumors under monotherapy", "setting": "[2]", "result": "did not inhibit the tumor growth"}, {"measurement": "Days post implant (range)", "setting": "[3]; Cilengitide + RT, at 4 months", "result": "131 (≥131) days"}, {"measurement": "Tumor volume (mm^3) median (histologic, Alu ISH)", "setting": "[3]; Cilengitide + RT, at 4 months", "result": "0.10 (0.06-0.14) mm^3"}, {"measurement": "Tumor volume (mm^3) median (histologic, Alu ISH)", "setting": "[3]; Cilengitide alone, at time of symptoms", "result": "175 (158-208) mm^3"}, {"measurement": "MRI finding of rat brain", "setting": "[3]; Cilengitide alone, representative animal imaged at 17d", "result": "contrast-enhancing tumor is visible"}, {"measurement": "Days post implant (range)", "setting": "[3]; Cilengitide alone, time of symptoms", "result": "40 (40-41) days"}, {"measurement": "MRI finding of rat brain", "setting": "[3]; Cilengitide+RT, representative animal imaged at 68 days (T2-MRI)", "result": "no tumor is visible"}, {"measurement": "Median Survival", "setting": "[3]; [6]", "result": "> 154", "unit": "days"}, {"measurement": "Median Survival in Days", "setting": "[3]; [6]", "result": ">154", "unit": "vs 113 Days"}, {"measurement": "radiosensitivity enhancement factor", "setting": "[4]", "result": 1.56}, {"measurement": "enhancement factor of tumor radioresponse (tumor growth delay)", "setting": "[5]; with single dose of 15 Gy local radiation", "result": 2.0}, {"measurement": "antitumor activity as a single agent (tumor growth delay)", "setting": "[5]; without radiation", "result": "no antitumor activity"}]}]}
